Measured values published in patent publication US9751854B2 (Millennium Pharmaceuticals, Inc., priority 2014, dated 2017).

Molecular target: human VPS34 (Homo sapiens (Human), UniProt Q8NEB9)
Test: Human VPS34 enzyme assay (Adapta TR-FRET ADP detection)
Assay type: biochemical
Details: IC50 range class

Sequence of human VPS34 (Q8NEB9 whole entry): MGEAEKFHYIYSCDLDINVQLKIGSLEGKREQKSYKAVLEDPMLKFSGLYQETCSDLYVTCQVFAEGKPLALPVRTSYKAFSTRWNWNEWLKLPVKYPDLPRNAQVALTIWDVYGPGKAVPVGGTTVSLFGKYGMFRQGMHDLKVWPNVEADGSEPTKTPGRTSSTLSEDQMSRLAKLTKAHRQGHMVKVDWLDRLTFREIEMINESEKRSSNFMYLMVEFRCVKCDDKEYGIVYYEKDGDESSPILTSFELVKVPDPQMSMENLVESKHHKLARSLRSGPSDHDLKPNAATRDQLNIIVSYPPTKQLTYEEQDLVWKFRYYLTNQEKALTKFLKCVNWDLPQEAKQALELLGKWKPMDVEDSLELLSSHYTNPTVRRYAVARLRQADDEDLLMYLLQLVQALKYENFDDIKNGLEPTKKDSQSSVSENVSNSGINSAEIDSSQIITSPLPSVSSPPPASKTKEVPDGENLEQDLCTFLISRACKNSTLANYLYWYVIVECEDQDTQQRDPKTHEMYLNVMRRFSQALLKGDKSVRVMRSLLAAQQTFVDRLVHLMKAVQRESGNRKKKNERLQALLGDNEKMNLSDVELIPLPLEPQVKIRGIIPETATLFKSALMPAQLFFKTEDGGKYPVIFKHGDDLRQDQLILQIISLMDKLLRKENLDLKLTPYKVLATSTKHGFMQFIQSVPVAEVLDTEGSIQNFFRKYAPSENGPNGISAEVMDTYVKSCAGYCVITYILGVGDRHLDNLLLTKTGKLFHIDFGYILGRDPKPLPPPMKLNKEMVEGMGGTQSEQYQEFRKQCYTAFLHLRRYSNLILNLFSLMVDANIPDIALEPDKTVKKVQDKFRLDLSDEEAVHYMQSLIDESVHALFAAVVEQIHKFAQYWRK

IC50 | SMILES
50 to 100 nM | CC(=O)Nc1cc(-c2cnc(C)c(NS(=O)(=O)N(C)c3ccccc3)c2)ccn1 [Compound I-494, N-(6-methyl-5-{[methyl(phenyl)sulfamoyl]amino}-3,4′-bipyridin-2′-yl)acetamide]
< 10 nM | CC(=O)Nc1cc(-c2cnc(N)c(C(=O)Nc3ccccc3Cl)c2)ccn1 [Compound I-136, 2′-acetamido-6-amino-N-(2-chlorophenyl)-3,4′-bipyridine-5-carboxamide]
< 10 nM | Cc1nccc(Nc2cc(-c3cnc(Cl)c(NS(=O)(=O)c4ccc(F)cc4F)c3C)c(F)cn2)n1 [Compound I-294, N-{6-chloro-5′-fluoro-4-methyl-2′-[(2-methylpyrimidin-4-yl)amino]-3,4′-bipyridin-5-yl}-2,4-difluorobenzenesulfonamide]
> 100 nM | CC(=O)Nc1cc(-c2cnc3ncn(CC4CC4)c3c2)ccn1 [Compound I-135, N-{4-[1-(cyclopropylmethyl)-1H-imidazo[4,5-b]pyridin-6-yl]pyridin-2-yl}acetamide]
10 to 50 nM | CCN(CC)C(=O)c1cc(-c2ccnc(Nc3ccnc(C)n3)c2)cnc1C [Compound I-302, N,N-diethyl-6-methyl-2′-[(2-methylpyrimidin-4-yl)amino]-3,4′-bipyridine-5-carboxamide]
> 100 nM | Cc1nccc(Nc2cc(-c3cnc4c(c3)C(=O)N(Cc3ccccc3)CC4)ccn2)n1 [Compound I-378, 6-benzyl-3-[2-[(2-methylpyrimidin-4-yl)amino]-4-pyridyl]-7,8-dihydro-1,6-naphthyridin-5-one]
< 10 nM | CC(=O)Nc1cc(-c2cnc(C)c(NS(=O)(=O)c3ccc(C(F)(F)F)cc3Cl)c2)ccn1 [Compound I-196, N-[5-({[2-chloro-4-(trifluoromethyl)phenyl]sulfonyl}amino)-6-methyl-3,4′-bipyridin-2′-yl]acetamide]
10 to 50 nM | Cc1nccc(Nc2cc(-c3cnc(C)c(C(=O)N4CCCC4)c3)ccn2)n1 [Compound I-315, {6-methyl-2′-[(2-methylpyrimidin-4-yl)amino]-3,4′-bipyridin-5-yl}(pyrrolidin-1-yl)methanone]
10 to 50 nM | CN(C)c1ncc(-c2ccnc(Nc3ccncn3)c2)cc1C(=O)N(C)C12CC(C1)C2 [Compound I-284, N-(bicyclo[1.1.1]pent-1-yl)-6-(dimethylamino)-N-methyl-2′-(pyrimidin-4-ylamino]-3,4′-bipyridine-5-carboxamide]
< 10 nM | COC(=O)Nc1cc(-c2cnc(N)c(S(=O)(=O)N3CCCC3)c2)ccn1 [Compound I-36, methyl [6-amino-5-(pyrrolidin-1-ylsulfonyl)-3,4′-bipyridin-2′-yl]carbamate]
< 10 nM | CCc1ccc(S(=O)(=O)Nc2cc(-c3ccnc(NC(C)=O)c3)cnc2C)cc1 [Compound I-44, N-(5-{[(4-ethylphenyl)sulfonyl]amino}-6-methyl-3,4′-bipyridin-2′-yl)acetamide]
10 to 50 nM | CCOC(=O)Nc1cc(-c2cnc(C)c(NS(=O)(=O)N(C)C)c2)ccn1 [Compound I-364, ethyl {5-[(dimethylsulfamoyl)amino]-6-methyl-3,4′-bipyridin-2′-yl}carbamate]
< 10 nM | Cc1ncc(-c2ccnc(NC(=O)OCc3ccn(C)n3)c2)cc1NS(=O)(=O)c1ccc(F)cc1F [Compound I-326, (1-methyl-1H-pyrazol-3-yl)methyl (5-{[(2,4-difluorophenyl)sulfonyl]amino}-6-methyl-3,4′-bipyridin-2′-yl)carbamate]

The remaining lines, values behind:

SMILES | IC50
CC(=O)Nc1cc(-c2cncc(S(=O)(=O)NC3CCC3)c2)ccn1 [Compound I-396, N-[5-(cyclobutylsulfamoyl)-3,4′-bipyridin-2′-yl]acetamide] | 10 to 50 nM
CC(=O)Nc1cc(-c2cncc(NS(=O)(=O)c3ccc(F)cc3F)c2Cl)ccn1 [Compound I-394, N-(4-chloro-5-{[(2,4-difluorophenyl)sulfonyl]amino}-3,4′-bipyridin-2′-yl)acetamide] | 10 to 50 nM
CC(=O)Nc1cc(-c2cnc(Cl)c(NS(=O)(=O)c3ccc(F)cc3F)c2C)c(C)cn1 [Compound I-250, N-(6-chloro-5-{[(2,4-difluorophenyl)sulfonyl]amino}-4,5′-dimethyl 3,4′-bipyridin-2′-yl)acetamide] | 10 to 50 nM
CC(=O)Nc1cc(-c2cnc(Cl)c(NS(=O)(=O)c3ccccc3Cl)c2C)ccn1 [Compound I-240, N-(6-chloro-5-{[(2-chlorophenyl)sulfoayl]amino}-4-methyl-3,4′-bipyridin-2′-yl)acetamide] | 10 to 50 nM
CC(=O)Nc1cc(-c2cnc(Cl)c(NS(=O)(=O)c3ccc(Cl)cc3F)c2C)ccn1 [Compound I-399, N-(6-chloro-5-{[(4-chloro-2-fluorophenyl)sulfonyl]amino}-4-methyl-3,4′-bipyridin-2′-yl)acetamide] | 10 to 50 nM
Cc1ncc(-c2ccnc(NC(=O)C3CC3(F)F)c2)cc1NS(=O)(=O)c1ccc(F)cc1F (racemic) [Compound I-16, (rac)-N-(5-{[(2,4-difluorophenyl)sulfonyl]amino}-6-methyl-3,4′-bipyridin-2′-yl)-2,2-difluorocyclopropanecarboxamide] | < 10 nM
CC(=O)Nc1cc(-c2cnc(C)c(NS(=O)(=O)c3cc(C(F)(F)F)ccc3F)c2)ccn1 [Compound I-143, N-[5-({[2-fluoro-5-(trifluoromethyl)phenyl]sulfonyl}amino)-6-methyl-3,4′-bipyridin-2′-yl]acetamide] | < 10 nM
CCc1ncc(-c2ccnc(NC(C)=O)c2)cc1NS(=O)(=O)c1ccc(F)cc1F [Compound I-201, N-(5-{[(2,4-difluorophenyl)sulfonyl]amino}-6-ethyl-3,4′-bipyridin-2′-yl)acetamide] | < 10 nM
CC(=O)Nc1cc(-c2cnc(N)c(C(=O)N3CCc4ccccc43)c2)ccn1 [Compound I-71, N-[6-amino-5-(2,3-dihydro-1H-indol-1-ylcarbonyl)-3,4′-bipyridin-2′-yl]acetamide] | < 10 nM
CC(=O)Nc1cc(-c2cnc(C)c(NS(=O)(=O)N3CCCCCC3)c2)ccn1 [Compound I-341] | 10 to 50 nM
CC(=O)Nc1cc(-c2cnc3cc[nH]c3c2)ccn1 [Compound I-17, N-[4-(1H-pyrrolo[3,2-b]pyridin-6-yl)pyridin-2-yl]acetamide] | 50 to 100 nM
Cc1ncc(-c2ccnc(N)c2)cc1NS(=O)(=O)N(C)C [Compound I-281, N′-(2′-amino-6-methyl-3,4′-bipyridin-5-yl)-N,N-dimethylsulfuric diamide] | > 100 nM
CC(=O)Nc1cc(-c2cnc(Cl)c(N3CCCNS3(=O)=O)c2)ccn1 [Compound I-448, N-[6-chloro-5-(1,1-dioxido-1,2,6-thiadiazinan-2-yl)-3,4′-bipyridin-2′-yl]acetamide] | 10 to 50 nM
COc1ccc(S(=O)(=O)Nc2cc(-c3ccnc(NC(C)=O)c3)cnc2C)c(F)c1 [Compound I-163, N-(5-{[(2-fluoro-4-methoxyphenyl)sulfonyl]amino}-6-methyl-3,4′-bipyridin-2′-yl)acetamide] | < 10 nM
CCc1c(-c2ccnc(NC(=O)C3CC3)c2)cnc(Cl)c1NS(=O)(=O)c1ccc(F)cc1F [Compound I-278, N-(6-chloro-5-{[(2,4-difluorophenyl)sulfonyl]amino}-4-ethyl-3,4′-bipyridin-2′-yl)cyclopropanecarboxamide] | 10 to 50 nM
